Assay type in all cases: functional
Assay [1] has as its system Pseudomonas putida. Briefly: Antibacterial activity against Pseudomonas putida at 100 ug/ml after 24 hr by agar well diffusion method. (In general: A growth-free zone around the sample is the usual read-out of agar diffusion tests.)
The test system of assay [2] is Pseudomonas putida. Briefly: Antibacterial activity against Pseudomonas putida at 50 ug/ml after 24 hr by agar well diffusion method.
Assay [3] concerns Pseudomonas putida. Briefly: Antibacterial activity against Pseudomonas putida at 10 ug/ml after 24 hr by agar well diffusion method.
In assay [4] the test system is Escherichia coli. Briefly: Antibacterial activity against Escherichia coli MTCC 51 at 100 ug/ml after 24 hr by agar well diffusion method.
The test system of assay [5] is Escherichia coli. Briefly: Antibacterial activity against Escherichia coli MTCC 51 at 50 ug/ml after 24 hr by agar well diffusion method.
Assay [6] deals with Escherichia coli. Briefly: Antibacterial activity against Escherichia coli MTCC 51 at 10 ug/ml after 24 hr by agar well diffusion method.
Assay [7] has as its system Geobacillus stearothermophilus. Briefly: Antibacterial activity against Geobacillus stearothermophilus MTCC 8508 at 100 ug/ml after 24 hr by agar well diffusion method.
Assay [8] has as its system Geobacillus stearothermophilus. Briefly: Antibacterial activity against Geobacillus stearothermophilus MTCC 8508 at 50 ug/ml after 24 hr by agar well diffusion method.
For assay [9], the system named is Geobacillus stearothermophilus. Briefly: Antibacterial activity against Geobacillus stearothermophilus MTCC 8508 at 10 ug/ml after 24 hr by agar well diffusion method.
Assay [10] relates to Bacillus subtilis. Briefly: Antibacterial activity against Bacillus subtilis MTCC 121 at 100 ug/ml after 24 hr by agar well diffusion method.
For assay [11], the system named is Bacillus subtilis. Briefly: Antibacterial activity against Bacillus subtilis MTCC 121 at 50 ug/ml after 24 hr by agar well diffusion method.
Assay [12] deals with Bacillus subtilis. Briefly: Antibacterial activity against Bacillus subtilis MTCC 121 at 10 ug/ml after 24 hr by agar well diffusion method.
The subject of assay [13] is Aspergillus niger. Briefly: Antifungal activity against Aspergillus niger at 100 ug/ml after 96 hr.
Assay [14] has as its system Aspergillus niger. Briefly: Antifungal activity against Aspergillus niger at 10 ug/ml after 96 hr.
In assay [15] the test system is Aspergillus niger. Briefly: Antifungal activity against Aspergillus niger at 50 ug/ml after 96 hr.
Assay [16] deals with Aspergillus flavus. Briefly: Antifungal activity against Aspergillus flavus at 100 ug/ml after 96 hr.
In assay [17] the test system is Aspergillus flavus. Briefly: Antifungal activity against Aspergillus flavus at 50 ug/ml after 96 hr.
Assay [18] relates to Aspergillus flavus. Briefly: Antifungal activity against Aspergillus flavus at 10 ug/ml after 96 hr.

Molecules are shown by their SMILES. Activity calls are given as the source filed them. The rule behind the calls is not given here.

For orientation: inhibition means how much of the control response was suppressed. A lower inhibition goes with a weak effect.

As to `Clc1ccc2oc(-c3cccnc3)nc2c1`, the “diameter of the inhibition zone (DIZ)” value was 35.33% in the assay with Pseudomonas putida [1]; 25.33% in the assay on Pseudomonas putida [2]; 9.66% in the assay on Pseudomonas putida [3]; 36.74% in the assay with Escherichia coli [4]; 27.33% in the assay with Escherichia coli [5]; 12.66% in the assay on Escherichia coli [6]. Besides, the “diameter of the inhibition zone (DIZ)” value was 32.33% in [7]; 21.43% in assay [8]; 11.33% in [9]; 33.33% in the assay on Bacillus subtilis [10]; 22.16% in the assay on Bacillus subtilis [11]; 13.33% with Bacillus subtilis [12]. In addition, the inhibition at 100 µg/mL in the assay with Aspergillus niger [13] is 76.5%; with Aspergillus flavus [16], 78.9%. Further, the values for the inhibition at 10 µg/mL in the assay with Aspergillus niger [14] and in the assay with Aspergillus flavus [18] were 17.6% and 15.8%, respectively. Further, the inhibition at 50 µg/mL is 41.7% in the assay on Aspergillus niger [15] and 26.3% in the assay on Aspergillus flavus [17].

As for `Clc1ccc2oc(-c3cccs3)nc2c1`, the “diameter of the inhibition zone (DIZ)” value with Pseudomonas putida [1] stood at 44.77%; in the assay with Pseudomonas putida [2], 33.66%; in the assay on Pseudomonas putida [3] it was 19.66%; in the assay with Escherichia coli [4], 43.33%; with Escherichia coli [5], 31.77%; with Escherichia coli [6], 17.74%. Further, the “diameter of the inhibition zone (DIZ)” value in assay [7] was 39.66%; in assay [8], 32.66%; in assay [9], 21.33%; in the assay with Bacillus subtilis [10], 41.66%; in the assay on Bacillus subtilis [11] it was 30.53%; in the assay on Bacillus subtilis [12], 19.66%. The results for the inhibition at 100 µg/mL in the assay on Aspergillus niger [13] and in the assay on Aspergillus flavus [16] were 11.8% and 84.2%, respectively. Besides, the inhibition at 10 µg/mL in the assay with Aspergillus niger [14] came out at 4.89%; in the assay on Aspergillus flavus [18], 21.1%. For the same compound, the inhibition at 50 µg/mL in the assay on Aspergillus niger [15] was found to be 5.88%; with Aspergillus flavus [17] it was 47.4%.

For `O=[N+]([O-])c1ccc(-c2nc3cc(Cl)ccc3o2)cc1`, the “diameter of the inhibition zone (DIZ)” value is reported as 31.16% in the assay on Pseudomonas putida [1]; 18.13% in the assay with Pseudomonas putida [2]; 30.24% in the assay with Escherichia coli [4]; 17.14% in the assay on Escherichia coli [5]; 19.37% in [7]; 12.26% in assay [8]. Further, the “diameter of the inhibition zone (DIZ)” value with Bacillus subtilis [10] was found to be 17.22%; with Bacillus subtilis [11] it was 10.13%. The “diameter of the inhibition zone (DIZ)” value (in the assay on Pseudomonas putida [3]; in the assay on Escherichia coli [6]; in [9]; in the assay with Bacillus subtilis [12]) was “inactive” in each case. The inhibition at 100 µg/mL with Aspergillus niger [13] was 73.6%; in the assay on Aspergillus flavus [16], 78.5%. The inhibition at 10 µg/mL in the assay with Aspergillus niger [14] was found to be 43.2%; in the assay on Aspergillus flavus [18], 19.9%. The results for the inhibition at 50 µg/mL with Aspergillus niger [15] and in the assay on Aspergillus flavus [17] were 66.9% and 49.6%, respectively.

Take `Clc1ccc2oc(-c3ccccc3)nc2c1`: the “diameter of the inhibition zone (DIZ)” value in the assay on Pseudomonas putida [1] was 76.33%; in the assay with Pseudomonas putida [2] it was 57.66%; in the assay with Pseudomonas putida [3], 15.21%; with Escherichia coli [4], 45.33%; in the assay on Escherichia coli [5], 33.87%; in the assay on Escherichia coli [6], 19.92%. The “diameter of the inhibition zone (DIZ)” value in [7] worked out at 36.44%; in assay [8] it was 27.21%; in [9], 10.66%; with Bacillus subtilis [10] it was 36.74%; in the assay on Bacillus subtilis [11] it was 26.47%; in the assay on Bacillus subtilis [12], 10.21%. In addition, the inhibition at 100 µg/mL was 21.9% in the assay with Aspergillus niger [13] and 86.2% in the assay on Aspergillus flavus [16]. In addition, the inhibition at 10 µg/mL amounted to 8.93% with Aspergillus niger [14] and 29% in the assay on Aspergillus flavus [18]. For the same compound, the inhibition at 50 µg/mL was found to be 5.88% with Aspergillus niger [15] and 51.4% with Aspergillus flavus [17].

As to `Cc1ccc(-c2nc3cc(Cl)ccc3o2)cc1`, the “diameter of the inhibition zone (DIZ)” value with Pseudomonas putida [1] is listed as 73.47%; in the assay with Pseudomonas putida [2], 54.56%; in the assay with Pseudomonas putida [3], 14.22%; in the assay with Escherichia coli [4], 43.33%; in the assay on Escherichia coli [5] it was 32.77%; in the assay with Escherichia coli [6], 18.62%. Moreover, the “diameter of the inhibition zone (DIZ)” value in assay [7] is given as 43.33%; in assay [8], 30.87%; in assay [9], 17.92%; in the assay with Bacillus subtilis [10], 42.13%; in the assay on Bacillus subtilis [11], 31.37%; in the assay with Bacillus subtilis [12], 17.22%. Further, the figures for the inhibition at 100 µg/mL in the assay with Aspergillus niger [13] and in the assay with Aspergillus flavus [16] were 21.4% and 66.9%, respectively. Moreover, the inhibition at 10 µg/mL with Aspergillus niger [14] was found to be 4.19%; in the assay with Aspergillus flavus [18] it was 20.1%. The inhibition at 50 µg/mL in the assay on Aspergillus niger [15] was 7.47%; with Aspergillus flavus [17] it was 43.2%.

Regarding `Cc1ccc(-c2nc3cc(Cl)ccc3o2)s1` [5-CHLORO-2-(5-METHYLTHIOPHEN-2-YL)BENZO[D]OXAZOLE], the “diameter of the inhibition zone (DIZ)” value in the assay on Pseudomonas putida [1] worked out at 32.66%; in the assay with Pseudomonas putida [2], 18.33%; in the assay with Escherichia coli [4] it was 31.74%; in the assay with Escherichia coli [5], 17.44%; in [7], 18.47%; in assay [8], 12.66%. Besides, the “diameter of the inhibition zone (DIZ)” value came to 16.66% in the assay with Bacillus subtilis [10] and 10.33% in the assay on Bacillus subtilis [11]. In addition, the “diameter of the inhibition zone (DIZ)” value (in the assay with Pseudomonas putida [3]; with Escherichia coli [6]; in assay [9]; in the assay on Bacillus subtilis [12]) was “inactive” each time. In addition, the inhibition at 100 µg/mL with Aspergillus niger [13] stood at 71.9%; with Aspergillus flavus [16], 37.5%. The inhibition at 10 µg/mL was found to be 12.4% in the assay on Aspergillus niger [14] and 13.7% in the assay with Aspergillus flavus [18]. The inhibition at 50 µg/mL in the assay with Aspergillus niger [15] is 63.9%; with Aspergillus flavus [17], 24.9%.

Turning to `COc1cc(-c2nc3cc(Cl)ccc3o2)ccc1O` [4-(5-CHLOROBENZO[D]OXAZOL-2-YL)-2-METHOXYPHENOL], the “diameter of the inhibition zone (DIZ)” value in the assay with Pseudomonas putida [1] worked out at 37.33%; in the assay on Pseudomonas putida [2], 26.33%; with Pseudomonas putida [3], 12.66%; in the assay with Escherichia coli [4], 31.33%; with Escherichia coli [5], 21.43%; in the assay with Escherichia coli [6], 9.33%. The “diameter of the inhibition zone (DIZ)” value in assay [7] came out at 31.74%; in assay [8], 21.33%; in [9], 10.66%; with Bacillus subtilis [10], 31.33%; in the assay on Bacillus subtilis [11], 20.43%; in the assay on Bacillus subtilis [12], 9.33%. Besides, the inhibition at 100 µg/mL in the assay with Aspergillus niger [13] is 21.9%; in the assay with Aspergillus flavus [16], 86.2%. In addition, the figures for the inhibition at 10 µg/mL in the assay on Aspergillus niger [14] and in the assay on Aspergillus flavus [18] were 8.93% and 29%, respectively. For the same compound, the inhibition at 50 µg/mL was determined as 5.88% in the assay with Aspergillus niger [15] and 51.4% in the assay with Aspergillus flavus [17].

For the compound `C[C@@H]1C[C@@H]([C@H](O)CC2CC(=O)NC(=O)C2)C(=O)[C@@H](C)C1` [CYCLOHEXIMIDE], the figures for the inhibition at 100 µg/mL with Aspergillus niger [13] and in the assay with Aspergillus flavus [16] were 35.3% and 78.9%, respectively. In addition, the inhibition at 10 µg/mL with Aspergillus niger [14] came out at 11.8%; in the assay with Aspergillus flavus [18], 15.8%. Further, the inhibition at 50 µg/mL in the assay on Aspergillus niger [15] came to 23.5%; in the assay with Aspergillus flavus [17], 63.1%.

With `O=C(N[C@H](CO)[C@H](O)c1ccc([N+](=O)[O-])cc1)C(Cl)Cl` [CHLORAMPHENICOL], the “diameter of the inhibition zone (DIZ)” value is 71.24% in the assay with Pseudomonas putida [1]; 43.4% with Pseudomonas putida [2]; 19.33% with Pseudomonas putida [3]; 65.4% in the assay on Escherichia coli [4]; 50.4% in the assay with Escherichia coli [5]; 20.33% in the assay on Escherichia coli [6]. Also, the “diameter of the inhibition zone (DIZ)” value is 77.2% in [7]; 53.2% in assay [8]; 25.33% in assay [9]; 64.2% in the assay on Bacillus subtilis [10]; 47.2% in the assay on Bacillus subtilis [11]; 26.33% in the assay on Bacillus subtilis [12].

Source of the values: ChEMBL document CHEMBL3046135, “Iodine (III)-mediated synthesis of some 2-aryl/hetarylbenzoxazoles as antibacterial/antifungal agents” (2010).
